Data published in patent US20230087118A1, “IMIDAZO[1,2-a][sequence] DERIVATIVES AND THEIR USE IN THE TREATMENT OF DISEASE” (priority 2019, published 2023).
pIC50: −log10 of the molar value. Counter-ions that a name gives are not always drawn.

target: T1, IRAK4 (Homo sapiens, UniProt Q9NWZ3); test: biochemical; settings: not given
T1 sequence (Q9NWZ3 1-460): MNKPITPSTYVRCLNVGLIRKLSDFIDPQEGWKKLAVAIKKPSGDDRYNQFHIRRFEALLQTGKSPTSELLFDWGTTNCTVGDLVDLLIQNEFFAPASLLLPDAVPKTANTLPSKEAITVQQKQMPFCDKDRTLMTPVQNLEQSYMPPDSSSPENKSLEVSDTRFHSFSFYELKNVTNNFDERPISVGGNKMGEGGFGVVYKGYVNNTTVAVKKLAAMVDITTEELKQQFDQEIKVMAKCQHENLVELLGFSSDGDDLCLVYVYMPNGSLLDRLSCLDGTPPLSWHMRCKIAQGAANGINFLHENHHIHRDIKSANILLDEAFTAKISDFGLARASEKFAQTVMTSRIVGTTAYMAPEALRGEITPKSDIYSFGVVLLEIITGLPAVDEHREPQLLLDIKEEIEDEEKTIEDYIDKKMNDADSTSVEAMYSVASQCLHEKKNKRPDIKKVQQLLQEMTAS

Row | SMILES | pIC50
1 | COc1nc(C(=O)Nc2cccc(C(F)F)n2)cn2cc(C34COC(C)(C3)C4)nc12 [Example 231, N-(6-(difluoromethyl)pyridin-2-yl)-8-methoxy-2-(1-methyl-2-oxabicyclo[2.1.1]hexan-4-yl)imidazo[1,2-a]pyrazine-6-carboxamide] | 8.15
2 | CC12CC(c3cn4cc(C(=O)Nc5cccn(C(F)F)c5=O)c(OC5CC(F)(F)C5)cc4n3)(CO1)C2 [Example 455, 7-(3,3-Difluorocyclobutoxy)-N-(1-(difluoromethyl)-2-oxo-1,2-dihydropyridin-3-yl)-2-(1-methyl-2-oxabicyclo[2.1.1]hexan-4-yl)imidazo[1,2-a]pyridine-6-carboxamide] | 8.92
3 | CC(C)Oc1cc2nc([C@@]34CC[C@@](C)(C3)OC4)cn2cc1C(=O)Nc1cnn2cccnc12 (single isomer, unassigned) [Example 615] | 9.70
4 | CC(C)Oc1cc2nc([C@@]34CC[C@@](C)(C3)OC4)cn2cc1C(=O)Nc1ccn(C)n1 (single isomer, unassigned) [Example 606] | 8.64
5 | CC12CCC(c3cn4cc(C(=O)Nc5cnc6cccnn56)c(OC5CCC5)cc4n3)(CO1)C2 (centres unmarked) [Example 649, 7-cyclobutoxy-N-(imidazo[1,2-b]pyridazin-3-yl)-2-(1-methyl-2-oxabicyclo[2.2.1]heptan-4-yl)imidazo[1,2-a]pyridine-6-carboxamide] | 9.70
6 | O=C(Nc1cccc(C(F)F)n1)c1cn2cc(C3CC3)nc2cc1OC1CCOC1 (centres unmarked) [Example 468, 2-Cyclopropyl-N-(6-(difluoromethyl)pyridin-2-yl)-7-((tetrahydrofuran-3-yl)oxy)imidazo[1,2-a]pyridine-6-carboxamide] | 8.15
7 | CC(C)Oc1cc2nc(C34CC(C#N)(C3)C4)cn2cc1C(=O)Nc1cccc(C(F)F)n1 [Example 402, 2-(3-Cyanobicyclo[1.1.1]pentan-1-yl)-N-(6-(difluoromethyl)pyridin-2-yl)-7-isopropoxyimidazo[1,2-a]pyridine-6-carboxamide] | 9.70
8 | CC(C)Oc1c(C(=O)Nc2cccn(C)c2=O)cn2cc(C34COC(C)(C3)C4)nc2c1Cl [Example 255, 8-Chloro-7-isopropoxy-N-(1-methyl-2-oxo-1,2-dihydropyridin-3-yl)-2-(1-methyl-2-oxabicyclo[2.1.1]hexan-4-yl)imidazo[1,2-a]pyridine-6-carboxamide] | 6.80
9 | CC(C)Oc1cc2nc(C34CCC(C)(C3)OC4)cn2cc1C(=O)Nc1ccn(C(F)(F)F)n1 (centres unmarked) [Example 506, 7-Isopropoxy-2-(1-methyl-2-oxabicyclo[2.2.1]heptan-4-yl)-N-(1-(trifluoromethyl)-1H-pyrazol-3-yl)imidazo[1,2-a]pyridine-6-carboxamide] | 8.42
10 | CC(C)Oc1nc2nc(C34CCOC(C)(C3)C4)cn2cc1C(=O)Nc1cccc(C(F)(F)F)n1 [Example 237] | 9.52
11 | CC(C)Oc1nc(C(=O)Nc2cnn3cccnc23)cn2cc(C34COC(CF)(C3)C4)nc12 [Example 340, 2-(1-(Fluoromethyl)-2-oxabicyclo[2.1.1]hexan-4-yl)-8-isopropoxy-N-(pyrazolo[1,5-a]pyrimidin-3-yl)imidazo[1,2-a]pyrazine-6-carboxamide] | 8.17
12 | C[C@]12CC[C@](c3cn4cc(C(=O)Nc5cccc(C(F)F)n5)nc(OC5CCC5)c4n3)(CO1)C2 (single isomer, unassigned) [Example 627] | 9.40
13 | CC(C)Oc1nc2nc([C@]34CC[C@](C)(C3)OC4)cn2cc1C(=O)Nc1cccn(C)c1=O (single isomer, unassigned) [Example 653] | 8.96
14 | Cn1cccc(NC(=O)c2cn3cc(C45COC(C)(C4)C5)nc3cc2OC2CCC2)c1=O [Example 424, 7-Cyclobutoxy-N-(1-methyl-2-oxo-1,2-dihydropyridin-3-yl)-2-(1-methyl-2-oxabicyclo[2.1.1]hexan-4-yl)imidazo[1,2-a]pyridine-6-carboxamide] | 9.15
15 | CC12CCC(c3cn4cc(C(=O)Nc5cccn(C(F)F)c5=O)c(OC5CCC5)cc4n3)(CO1)C2 (centres unmarked) [Example 538, 7-Cyclobutoxy-N-(1-(difluoromethyl)-2-oxo-1,2-dihydropyridin-3-yl)-2-(1-methyl-2-oxabicyclo[2.2.1]heptan-4-yl)imidazo[1,2-a]pyridine-6-carboxamide] | 9.52
16 | CC(C)Oc1nc2nc(C34COC(C)(C3)C4)cn2cc1C(=O)Nc1cccn2cnnc12 [Example 409, N-([1,2,4]triazolo[4,3-a]pyridin-8-yl)-7-isopropoxy-2-(1-methyl-2-oxabicyclo[2.1.1]hexan-4-yl)imidazo[1,2-a]pyrimidine-6-carboxamide] | 8.82
17 | CC(C)Oc1cc2nc(C34CCC(C)(C3)OC4)cn2cc1C(=O)Nc1ccccn1 (centres unmarked) [Example 518, 7-Isopropoxy-2-(1-methyl-2-oxabicyclo[2.2.1]heptan-4-yl)-N-(pyridin-2-yl)imidazo[1,2-a]pyridine-6-carboxamide] | 8.40
18 | CCOc1cc2nc([C@@H]3CC3(F)F)cn2cc1C(=O)Nc1cccc(OC)n1 (single isomer, unassigned) [Example 69] | 7.35
19 | COc1ncccc1NC(=O)c1cn2cc(C34CC(C#N)(C3)C4)nc2cc1OC(C)C [Example 403, 2-(3-Cyanobicyclo[1.1.1]pentan-1-yl)-7-isopropoxy-N-(2-methoxypyridin-3-yl)imidazo[1,2-a]pyridine-6-carboxamide] | 9.10
20 | COc1cc2nc(C3CCOCC3)cn2cc1C(=O)Nc1ccc(F)cc1OC(C)C [Example 109] | 6.94
21 | COc1cc2nc(C3CCOCC3)cn2cc1C(=O)Nc1ccnc(C)c1OC [Example 201] | 6.42
22 | COc1cccc(NC(=O)c2cn3cc(C4CC4)nc3cc2OC2CCCC2)n1 [Example 465, 7-(Cyclopentyloxy)-2-cyclopropyl-N-(6-methoxypyridin-2-yl)imidazo[1,2-a]pyridine-6-carboxamide] | 8.10
23 | CC(C)Oc1cc2nc(C34COC(C)(C3)C4)cn2cc1C(=O)Nc1ccnc(C(F)F)c1 [Example 258, N-(2-(difluoromethyl)pyridin-4-yl)-7-isopropoxy-2-(1-methyl-2-oxabicyclo[2.1.1]hexan-4-yl)imidazo[1,2-a]pyridine-6-carboxamide] | 7.22
24 | COc1ncccc1NC(=O)c1cn2cc(C34COC(CF)(C3)C4)nc2c(OC(C)C)n1 [Example 339, 2-(1-(Fluoromethyl)-2-oxabicyclo[2.1.1]hexan-4-yl)-8-isopropoxy-N-(2-methoxypyridin-3-yl)imidazo[1,2-a]pyrazine-6-carboxamide] | 9.10
25 | O=C(Nc1cccn(C(F)F)c1=O)c1cn2cc(C3CC3)nc2cc1OC1CCOC1 (centres unmarked) [Example 459, 2-Cyclopropyl-N-(1-(difluoromethyl)-2-oxo-1,2-dihydropyridin-3-yl)-7-((tetrahydrofuran-3-yl)oxy)imidazo[1,2-a]pyridine-6-carboxamide] | 8.08

same assay, conditions: IRAK4 Biochemical Assay (1 mM ATP, 2 h) IC50 (μM), 1 mM ATP, 2 h, 100 pM IRAK4

Row | SMILES | IC50
26 | CC1(C)CC(Oc2cc3nc(C45COC(C)(C4)C5)cn3cc2C(=O)Nc2cccn(C(F)F)c2=O)CO1 (centres unmarked) [Example 447, N-(1-(difluoromethyl)-2-oxo-1,2-dihydropyridin-3-yl)-7-((5,5-dimethyltetrahydrofuran-3-yl)oxy)-2-(1-methyl-2-oxabicyclo[2.1.1]hexan-4-yl)imidazo[1,2-a]pyridine-6-carboxamide] | 0.0014 µM
27 | COc1cccc(NC(=O)c2cn3cc(C45CCC(C)(C4)OC5)nc3cc2OC)n1 (centres unmarked) [Example 27] | 0.0198 µM
28 | Cn1ccc(NC(=O)c2cn3cc(C45COC(C)(C4)C5)nc3cc2OC2CC(C(F)F)C2)n1 (centres unmarked) [Example 451, 7-(3-(Difluoromethyl)cyclobutoxy)-N-(1-methyl-1H-pyrazol-3-yl)-2-(1-methyl-2-oxabicyclo[2.1.1]hexan-4-yl)imidazo[1,2-a]pyridine-6-carboxamide] | 0.0065 µM
29 | COc1cccc(NC(=O)c2cn3cc(C45CCC(C)(CC4)OC5)nc3cc2OC)n1 [Example 29] | 0.0041 µM
30 | COc1ncccc1NC(=O)c1cn2cc(C34COC(C)(C3)C4)nc2nc1OC(C)C [Example 305, 7-Isopropoxy-N-(2-methoxypyridin-3-yl)-2-(1-methyl-2-oxabicyclo[2.1.1]hexan-4-yl)imidazo[1,2-a]pyrimidine-6-carboxamide trifluoroacetate] | 0.0005 µM
31 | O=C(Nc1cccc(C(F)F)n1)c1cn2cc(C3CC3)nc2cc1OC1CCOCC1 [Example 473, 2-Cyclopropyl-N-(6-(difluoromethyl)pyridin-2-yl)-7-((tetrahydro-2H-pyran-4-yl)oxy)imidazo[1,2-a]pyridine-6-carboxamide] | 0.0064 µM
32 | Cc1cnc2c(NC(=O)c3cn4cc(C56CCC(C)(CC5)OC6)nc4cc3OC(C)C)cnn2c1 [Example 573, 7-Isopropoxy-2-(1-methyl-2-oxabicyclo[2.2.2]octan-4-yl)-N-(6-methylpyrazolo[1,5-a]pyrimidin-3-yl)imidazo[1,2-a]pyridine-6-carboxamide] | 0.0018 µM
33 | COc1cccc(NC(=O)c2cn3cc(C45CC(C)(CO4)C5)nc3cc2OC)n1 [Example 26] | 0.124 µM
34 | COc1cc2nc(C34CC(OC)(C3)C4)cn2cc1C(=O)Nc1ccccn1 [Example 2] | 0.0586 µM
35 | CC(C)Oc1cc2nc(C34COC(C)(C3)C4)cn2cc1C(=O)Nc1ccn(C)n1 [Example 297, 7-Isopropoxy-N-(1-methyl-1H-pyrazol-3-yl)-2-(1-methyl-2-oxabicyclo[2.1.1]hexan-4-yl)imidazo[1,2-a]pyridine-6-carboxamide trifluoroacetate] | 0.0048 µM
